Data from patent US11123388B2, “Composition for preventing and treating inflammatory bowel disease” (GENUONE SCIENCES INC., priority 2015, dated 2021).
Where “and” joins values, the source holds several entries; their conditions need not be identical. Equal values may be shown once.

Columns and labels:
[1] = system: IL-6 production in LPS-treated macrophages; assay: Inhibition of LPS-induced IL-6 production in macrophages (ELISA); type: cell-based; settings: LPS 1 μg/mL
Procedure: 5. Effect of Inhibiting IL-6 Production The macrophages (American Type Culture Collections, Rockville, Mass., USA) cultured in a 24-well plate were pretreated with LPS (1 μg/mL) for 1 hour, treated with a extract (50 μg/mL), 20 mM 5-ASA (50 μg/mL) and 20 μM dexamethasone, and cultured for 24 hours, and the supernatant was used for the experiment. First, capture antibody of IL-6 was added into a 96-well ELISA plate and allowed to react overnight. The plate was washed 6 times with 1×PBS (PBS-T) containing 0.05% Tween-20, and blocked with 1× assay diluent solution containing 2% BSA at room temperature for 1 hour. […] The plate was again was washed 6 times with 1×PBS-T, detection antibody was added thereto, and allowed to react at room temperature for 2 hours. The plate was again was washed 6 times with 1×PBS-T, avidin-HRP solution was added thereto, and allowed to react at room temperature for 30 minutes. The plate was again was washed 6 times with 1×PBS-T, a TMB substrate solution was added thereto and allowed to react at room temperature for final 30 minutes, and a reaction stopping solution (1 M H3PO4) was added thereto to stop the reaction. With respect to the levels of reactions of the plate, the absorbance was measured at 450 nm using a microplate reader (TECAN, Gr, Austria).

[2] = system: TNF-α production in LPS-treated macrophages; assay: Inhibition of LPS-induced TNF-α production in macrophages (ELISA); type: cell-based; settings: Macrophage, LPS 1 μg/mL, read-out: Effect of inhibiting TNF-α (%)
Procedure: 4. Effect of Inhibiting TNF-α Production The macrophages (American Type Culture Collections, Rockville, Mass., USA) cultured in a 24-well plate were pretreated with LPS (1 μg/mL) for 1 hour, treated with a extract (100 μg/mL), 20 mM 5-ASA (100 μg/mL) and 20 μM dexamethasone, and cultured for 24 hours, and the supernatant of cell was used for the experiment. First, capture antibody of TNF-α was added into a 96-well ELISA plate and allowed to react overnight. The plate was washed 6 times with 1×PBS (PBS-T) containing 0.05% Tween-20, and blocked with 1× assay diluent solution containing 2% BSA at room temperature for 1 hour. The plate was washed 6 times with 1×PBS-T and the supernatant or TNF-α standard protein was added thereto and allowed to react at room temperature for 2 hours. The plate was again was washed 6 times with 1×PBS-T, detection antibody was added thereto, and allowed to react at room temperature for 2 hours. The plate was again was washed 6 times with 1×PBS-T, avidin-HRP solution was added thereto, and allowed to react at room temperature for 30 minutes. […] With respect to the levels of reactions of the plate, the absorbance was measured at 450 nm using a microplate reader (TECAN, Gr, Austria).

[3] = system: NO production in HT-29 cells; assay: Inhibition of NO production in HT-29 cells (Griess); type: cell-based, human; settings: 48 h
Procedure: 2. Effect of Inhibition of NO Production Human intestinal epithelial cell line HT-29 cells (American Type Culture Collections, Rockville, Mass., USA) were cultured in Dulbecco's Modified Eagle's Medium (DMEM) along with 10% Fatal bovine serum (FBS), 1% Antibiotic-Antimycotic (GIBCO, Cat No. 15240-062) in 100 mm/60.1 cm^2 culture dish at 37° C., 5% CO2 conditions. […] The supernatant of cell was collected and used as a sample for the test. The test analysis was performed using the Total NO/Nitrite/Nitrate ELISA kit (R&D systems, Cat. #KGE001) according to the manufacturer's manual. Briefly, the test was performed in the following sequence: the cell culture which was grown after treatment with the sample was dispensed into a 96-well plate in an amount of 50 μL/well, treated with Griess Reagent, reacted at room temperature for 10 minutes, and the absorbance was measured at 540 nm.

[4] = system: TNBS-induced Crohn's disease in ICR female mice; assay: Amelioration of Crohn's disease in TNBS animal model; type: in vivo
Procedure: 8. Effect of Ameliorating Crohn's Disease in TNBS Animal Model To construct an experimental model of inflammatory bowel disease, 7-week old ICR female mice (25 g to 27 g) were purchased from DBL Co., Ltd. (Eumseong, Korea), and the mice were given ad libitum access to solid feeds and water and allowed to adapt to a controlled environment with constant humidity (50±10%), constant temperature (22±2° C.), and 12-hour light-dark cycle for 1 week. […] The mice were fasted for 24 hours before injection of TNBS. […] The control drug (5-ASA) and extracts were dissolved in 0.5% carboxymethyl cellulose (CMC), and orally administered once daily for 5 days. The normal control group and the colitis-induced group were orally administered with 0.5% CMC. After 5 days of oral administration, mice were fasted until the next day and sacrificed. Each of their colons was excised from the cecum to the region immediately before the anus, and the length and external appearance of the excised colon were examined to determine the degree of weight loss, constipation, and intestinal edema, and the results were scored according to the criteria.

[5] = system: myeloperoxidase (MPO); assay: Myeloperoxidase (MPO) activity in colon tissue, TNBS animal model; type: in vivo; settings: TNBS mice, 200 mg/kg
Procedure: 6. Effect of Inhibiting Oxidative Stress Through Measurement of Myeloperoxidase (MPO) Activity
200 μL of lysis buffer was added to 100 mg of colon tissue collected at the time of autopsy and homogenized and the supernatant obtained by centrifugation at 10,000 rpm for 20 minutes was used. First, capture antibody of MPO was added into a 96-well ELISA plate and allowed to react overnight. The plate was washed 6 times with 1×PBS (PBS-T) containing 0.05% Tween-20, and blocked with 1× assay diluent solution containing 2% BSA at room temperature for 1 hour. […] With respect to the levels of reactions of the plate, the absorbance was measured at 450 nm using a microplate reader (TECAN, Gr, Austria).
To construct an experimental model of inflammatory bowel disease, 7-week old ICR female mice (25 g to 27 g) were purchased from DBL Co., Ltd. (Eumseong, Korea), and the mice were given ad libitum access to solid feeds and water and allowed to adapt to a controlled environment with constant humidity (50±10%), constant temperature (22±2° C.), and 12-hour light-dark cycle for 1 week. […] Each of their colons was excised from the cecum to the region immediately before the anus, and the length and external appearance of the excised colon were examined to determine the degree of weight loss, constipation, and intestinal edema, and the results were scored according to the criteria.

[6] = system: dextran sodium sulfate (DSS)-induced colitis in C57BL/6 female mice; assay: Amelioration of colitis in DSS animal model; type: in vivo; set-up: DAI (disease activity index): scale not given here; Colon Length: unit not given here
Procedure: 7. Effect of Ameliorating Colitis in DSS Animal Model To construct an experimental model of inflammatory bowel disease, 6-week old C57BL/6 female mice (17 g to 19 g) were purchased from DBL Co., Ltd. (Eumseong, Korea), and the mice were given ad libitum access to solid feeds and water and allowed to adapt to a controlled environment with constant humidity (50%), constant temperature (22° C.), and 12-hour light-dark cycle for 1 week. […] The control drug (5-ASA) and extracts were dissolved in 0.5% carboxymethyl cellulose (CMC), and then orally administered once daily for 7 days along with 3% dextran sodium sulfate (DSS), and the normal control group and the colitis-induced group were orally administered with 0.5% CMC. The colitis-induced group, the control drug-treated group, and the extract-treated group were given ad libitum access to 3% DSS for 1 week, and the normal control group was given ad libitum access to water. Then, the mice were sacrificed on the 8th day, and each of their colons was excised from the cecum to the region immediately before the anus, and the length and external appearance of the excised colon were examined to determine the degree of weight loss, diarrhea, and […], and the results were scored according to the criteria.

[7] = system: U937 cell adhesion to the HT-29 intestinal epithelial cells; assay: Inhibition of monocyte (U937) adhesion to TNF-α-stimulated intestinal epithelial cells (HT-29); type: cell-based, human; settings: 5-ASA 20 mM (positive control), TNF-α 100 ng/mL, 24 h
Procedure: 3. Effect of Inhibiting Monocyte Adhesion Ability in Intestinal Epithelial Cells Human intestinal epithelial cell line HT-29 cells (American Type Culture Collections, Rockville, Mass., USA) and human monocyte cell line U937 cells (ATCC, Rockville, Mass., USA) were cultured in RPMI 1640 containing fetal bovine serum (FBS) and 1% penicillin/streptomycin, and the cell line was maintained under the environment of 95% air and 5% CO2 at 37° C. […] The HT-29 cells (2×10^6 cells/well), which were cultured in a 48-well plate for 24 hours, were simultaneously treated with a extract (100 μg/mL) while treating with TNF-α (100 ng/mL), and cultured for 24 hours. In particular, 20 mM 5-aminosalicylic acid (5-ASA) was used as the positive control. Then, HT-29 cells were co-cultured along with U937 cells (5×10^5 cells/well), which were labeled with BCECF/AM at 37° C. for 30 minutes. Unattached U937 cells were removed and washed twice with PBS. The HT-29 cells to which U937 cells were attached were dissolved using 0.1% Triton X-100 which was dissolved in 0.1 mol/L Tris. The fluorescence of these lysates was measured using the luminance at 485 nm and 520 nm using a microplate reader (TECAN, Gr, Austria).

[8] = 200 mg/kg oral once daily 5 days, control drug 5-ASA 200 mg/kg, listed as Control drug-treated Group
[9] = 200 mg/kg oral once daily 5 days, control drug 5-ASA 200 mg/kg, listed as control-drug treated group
[10] = oral once daily 7 days, control drug 5-ASA 200 mg/kg, listed as Control drug-treated Group

`C[C@@H]1C[C@H]2[C@@H]3CCC4=CC(=O)C=C[C@]4(C)[C@@]3(F)[C@@H](O)C[C@]2(C)[C@@]1(O)C(=O)CO` [Dexamethasone, dexamethasone] gave an inhibition at 20 µM ([1]; Macrophage, dexamethasone 20 μM, read-out: Effect of inhibiting IL-6 (%)) of 49.9% and an inhibition at 20 µM ([2]; dexamethasone 20 μM) of 38.5%.

`Nc1ccc(O)c(C(=O)O)c1` [5-ASA, 5-aminosalicylic acid] was tested, and the “Effect of inhibiting IL-6 (%)” value ([1]; 5-ASA 20 mM) was 67.68% and 50.98%, the “Effect of inhibiting IL-6 (%)” value ([1]; 5-ASA 20 mM, listed as 5ASA) was 49.89% and 49.35% and the inhibition at 20000 µM ([1]; Macrophage, 5-ASA 20 mM, read-out: Effect of inhibiting IL-6 (%)) was 52.8%. For the same compound, the “inhibitory effect against NO production” value [3] was 37%, the “reduction of weight of colon per colon length compared to the Crohn's disease-induced group” value ([4]; 200 mg/kg) was “almost no difference” and the “Colon Length (cm)” value ([4]; 200 mg/kg oral once daily 5 days, control drug 5-ASA 200 mg/kg) was 8.33 ± 0.22 cm. For the same compound, the “Colon Length” value [4, 8] was 8.28 and 8.33 ± 0.22, the “DAI (disease activity index)” value [4, 8] was 10.56 ± 1.40 and 8.20 and the “Weight per Area (colon weight per colon length)” value (“Weight per Area” for short) [4, 8] was 67.67 ± 9.30 and 46.55. The “Colon Length” value [4, 9] was 8.27, the “DAI (disease activity index)” value [4, 9] was 6.30 and the “Weight per Area” value [4, 9] was 48.66. The “effect of improvement of disease activity index compared to the Crohn's disease-induced group” value ([4]; 200 mg/kg, listed as Control drug-treated Group, 200 mg/kg) was 7% and 9%, the “difference in colon weight per colon length compared to the Crohn's disease-induced group” value ([4]; 5-ASA 200 mg/kg) was “about 6.5 mg/cm” and the “decrease of MPO activity compared to the Crohn's disease-induced group” value [5] was 15%. The “effect of improvement of disease activity index compared to the colitis-induced group” value [6] was 45%, the “increase of the colon length compared to the colitis-induced group” value [6] was 3.6% and the “recovery of intestinal mucosa (immunostaining of intestinal mucosal tissues)” value [6] was “partially restored”. For the same compound, the “Colon Length” value [6, 10] was 5.42 and 5.77 and 5.45 and 5.31 ± 0.16, the “Colon Length (cm)” value [6, 10] was 5.42 cm and 5.31 ± 0.16 cm and the “DAI (disease activity index)” value [6, 10] was 4.50 and 7.48 and 6.88 ± 0.44 and 5.75 and 5.33. The “Weight per Area” value [6, 10] was 30.66 ± 0.76 and 32.52 and 31.42, the “Effect of inhibiting adhesion (%)” value [7] was 24.48% and the inhibition at 20000 µM ([7]; Homo sapiens, read-out: Effect of inhibiting adhesion (%)) was 18.9%. The inhibition at 20000 µM ([2]; 5-ASA 20 mM) was 11.1%.
